Test systems include HOP-62 NSCLC; OVCAR-5 ovarian; NCI-H522 lung; SK-OV-3 ovarian; MOLT-4 leukemia; SNB-19 CNS; OVCAR-4 ovarian; MDA-MB-231 breast; U251 CNS; HS 578T breast.
Holding throughout (assay): NCI tumour cell line growth inhibition, 48 h

“And” between values parts separate entries of the source, which are not always exact repeats. Equal entries are not always repeated.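 Test compounds were applied to cells in 96-well plates for 48 hours at 5 doses. GI50 = concentration required for 50% inhibition of growth. TGI denotes the concentration required for complete inhibition of growth.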

For the molecule `O=c1cc(-c2ccccc2)oc2cc(O)c(O)c(O)c12`, the GI50 is 9.49 µM in the assay with HOP-62 NSCLC; 30 µM with OVCAR-5 ovarian; 13.3 µM in the assay with NCI-H522 lung; 59.6 µM in the assay with SK-OV-3 ovarian; 53.7 µM in the assay with MOLT-4 leukemia; 30 µM in the assay on SNB-19 CNS. For the same molecule, the GI50 was 47.1 µM in the assay on OVCAR-4 ovarian, 14.1 µM with MDA-MB-231 breast and 11.1 µM in the assay with U251 CNS. For the same molecule, the TGI in the assay on HOP-62 NSCLC was 31.2 µM; in the assay on OVCAR-5 ovarian it was 88.5 µM; in the assay on NCI-H522 lung, above 100 µM; with SK-OV-3 ovarian, above 100 µM; in the assay with MOLT-4 leukemia, above 100 µM; with SNB-19 CNS, above 100 µM. Also, the TGI was above 100 µM in the assay on OVCAR-4 ovarian, 36.8 µM in the assay with MDA-MB-231 breast and above 100 µM in the assay on U251 CNS.
In the case of `O=S(=O)(N/N=C/c1ccc(Cl)c(Cl)c1)c1ccccc1`, the TGI was above 100 µM with HOP-62 NSCLC; above 100 µM in the assay on OVCAR-5 ovarian; above 100 µM in the assay on SK-OV-3 ovarian; 84.4 µM with MOLT-4 leukemia; above 100 µM with OVCAR-4 ovarian; above 100 µM in the assay with U251 CNS.
As to `O=C(C=Nc1ccccc1C(=O)[O-])c1cccs1.O=C(C=Nc1ccccc1C(=O)[O-])c1cccs1.[Co+2]`, the TGI with HOP-62 NSCLC, in the assay with OVCAR-5 ovarian, in the assay on NCI-H522 lung, in the assay on SK-OV-3 ovarian, with MOLT-4 leukemia and with SNB-19 CNS was above 100 µM throughout. In addition, the TGI in the assay on U251 CNS is above 100 µM.
With `COc1cc(-c2nc3sccn3c2-c2ccnc(NCCNS(=O)(=O)c3ccc(Cl)cc3)n2)ccc1F`, the GI50 in the assay with HOP-62 NSCLC is 5.01 µM; with OVCAR-5 ovarian it was 55 µM; in the assay with NCI-H522 lung it was 2.59 µM; in the assay on SK-OV-3 ovarian it was 6.82 µM; with MOLT-4 leukemia it was 1.42 µM; with SNB-19 CNS, 74 µM. The figures for the GI50 in the assay with OVCAR-4 ovarian, in the assay on HS 578T breast and in the assay on U251 CNS were 3.72 µM, 8.05 µM and 7.67 µM, respectively. For the same molecule, the TGI in the assay with HOP-62 NSCLC, in the assay with OVCAR-5 ovarian, in the assay on NCI-H522 lung, in the assay with SK-OV-3 ovarian, in the assay with MOLT-4 leukemia and in the assay on SNB-19 CNS was above 100 µM throughout. In addition, the TGI in the assay with OVCAR-4 ovarian, in the assay on HS 578T breast and in the assay on U251 CNS was above 100 µM in each case.
With `Cc1oc2c(C)c3oc(=O)cc(C)c3cc2c1CNC(=O)[C@@H]1OCCOCCOCCOCCOCCOC1C(=O)O` (stereo not given in full), the TGI in the assay on HOP-62 NSCLC, in the assay with OVCAR-5 ovarian, in the assay on NCI-H522 lung, in the assay with SK-OV-3 ovarian, with MOLT-4 leukemia and with SNB-19 CNS was above 100 µM throughout. Also, the TGI in the assay with OVCAR-4 ovarian and in the assay with U251 CNS was above 100 µM throughout.
For `Cc1ccccc1C1=[N+]([O-])c2ccccc2C1=O`, the TGI with HOP-62 NSCLC is 57.2 µM; with OVCAR-5 ovarian it was 43.1 µM; with NCI-H522 lung, 29 µM; in the assay on SK-OV-3 ovarian it was above 100 µM; in the assay on MOLT-4 leukemia, 49.2 µM; in the assay on SNB-19 CNS, above 100 µM. The molecule further yielded a TGI with U251 CNS of 31 µM.
Turning to `COC(c1cccc(C(O)(C(F)(F)F)C(F)(F)F)c1)(C(F)(F)F)C(F)(F)F`, the TGI worked out at 33.7 µM in the assay on HOP-62 NSCLC; 32.4 µM in the assay with OVCAR-5 ovarian; 26.5 µM in the assay on NCI-H522 lung; 34.4 µM in the assay on SK-OV-3 ovarian; 40.5 µM with MOLT-4 leukemia; 34.5 µM in the assay on SNB-19 CNS. For the same molecule, the results for the TGI in the assay with OVCAR-4 ovarian and in the assay on U251 CNS were 30.4 µM and 33.9 µM, respectively.
Consider `COc1ccc2c(c1)C(=O)N1CCOC1C2C(=O)O` (stereo not given), for which the TGI in the assay on HOP-62 NSCLC, in the assay with OVCAR-5 ovarian, in the assay on NCI-H522 lung, in the assay with SK-OV-3 ovarian, in the assay with MOLT-4 leukemia and in the assay on SNB-19 CNS was above 100 µM in each case. Also, the TGI in the assay with OVCAR-4 ovarian and in the assay on U251 CNS was above 100 µM throughout.
Consider `O=C1C2C(C(=O)[N]1[Hg][c]1cccs1)C1(Cl)C(Cl)=C(Cl)C2(Cl)C1(Cl)Cl` (stereo not given), for which the GI50 with HOP-62 NSCLC was 2.52 µM; in the assay on OVCAR-5 ovarian, 1.85 µM; in the assay on NCI-H522 lung it was 0.162 µM; in the assay with SK-OV-3 ovarian, 5.71 µM; with MOLT-4 leukemia it was 0.371 µM; in the assay with SNB-19 CNS, 1.72 µM. Besides, the GI50 in the assay with OVCAR-4 ovarian is 1.24 µM; in the assay with HS 578T breast it was 2.41 µM; with U251 CNS, 0.466 µM. Besides, the TGI in the assay with HOP-62 NSCLC came to 6.84 µM; in the assay on OVCAR-5 ovarian it was 3.61 µM; with NCI-H522 lung, 0.432 µM; in the assay on SK-OV-3 ovarian it was 17.9 µM; in the assay with MOLT-4 leukemia, 5.01 µM; in the assay on SNB-19 CNS, 3.4 µM. In addition, the TGI with OVCAR-4 ovarian was determined as 2.51 µM; in the assay on HS 578T breast, 11.5 µM; in the assay with U251 CNS it was 1.68 µM.
For `CC(=O)O[C@@]12CO[C@@H]1C[C@H](O)[C@@]1(C)C(=O)[C@H](O)C3=C(C)[C@@H](OC(=O)[C@H](O)[C@@H](NC(=O)OC(C)(C)C)c4ccccc4)C[C@@](O)([C@@H](OC(=O)c4ccccc4)[C@H]21)C3(C)C`, the GI50 is 0.0844 µM and 0.0428 µM in the assay on HOP-62 NSCLC; 0.00086 µM with NCI-H522 lung; 0.0521 µM and < 0.0174 µM in the assay on SK-OV-3 ovarian; 0.0337 µM and 0.00877 µM in the assay with MOLT-4 leukemia; 0.00175 µM in the assay with SNB-19 CNS; 0.00244 µM and 0.00364 µM with U251 CNS. Further, the TGI worked out at 3.78 µM with HOP-62 NSCLC; 0.0491 µM in the assay on SK-OV-3 ovarian; 50.1 µM in the assay on MOLT-4 leukemia; 76.1 µM in the assay with OVCAR-4 ovarian; 28.3 µM in the assay with U251 CNS.
As for `CCCOC(=O)C1CCC(=O)N1C(=O)C(C)Cl` (stereo not given), the TGI in the assay on HOP-62 NSCLC, in the assay with OVCAR-5 ovarian, with NCI-H522 lung, with SK-OV-3 ovarian, with MOLT-4 leukemia and with SNB-19 CNS was above 100 µM throughout. Moreover, the TGI in the assay with OVCAR-4 ovarian and in the assay on U251 CNS was above 100 µM each time.
Turning to `CC1(Cl)CC2OC3(Br)C=CC(C)(O)C2(CC1Br)C3(C)C` (stereo not given), the TGI with HOP-62 NSCLC, in the assay with OVCAR-5 ovarian, in the assay with SK-OV-3 ovarian, in the assay with MOLT-4 leukemia, in the assay with SNB-19 CNS and with OVCAR-4 ovarian was above 100 µM in each case. The same molecule registered a TGI in the assay on U251 CNS above 100 µM.
With `CC1OC(n2ccc(=O)[nH]c2=O)C=C(OC(=O)c2ccccc2)C1=O` (stereo not given), the TGI in the assay on HOP-62 NSCLC is above 100 µM; with SK-OV-3 ovarian it was above 100 µM; with MOLT-4 leukemia, above 100 µM; in the assay on SNB-19 CNS it was above 100 µM; with OVCAR-4 ovarian it was 36.8 µM; in the assay with U251 CNS it was 81.3 µM.

Source of the values: PubChem BioAssay (NCI).
